According to patent US4120864A, “1,2,4-4H-triazole derivatives” (Rohm and Haas Company, priority 1972, dated 1978):
Where a name gives a salt, the structure may show the parent alone. Read-outs that look alike come from different tables or passages of the source.

Legend:
[1] = test system: wheat leaf rust, Puccinia recondita; assay: whole plant or invertebrate; format: in vivo; settings: foliar; for pest or weed control at 280.212 g/ha: read-out: % Control (with 1" of rain), foliar, 0.25 lb., 1" of rain; for pest or weed control at 1120.85 g/ha: read-out: % Control (with 1" of rain), foliar, 1 lb., 1" of rain
[2] = test system: wheat leaf rust, Puccinia recondita; assay: whole plant or invertebrate; format: in vivo; settings: foliar; for pest or weed control at 280.212 g/ha: read-out: % Control (without rain), foliar, 0.25 lb.; for pest or weed control at 1120.85 g/ha: read-out: % Control (without rain), foliar, 1 lb.

Molecule | % Control (with 1" of rain) ([1]; 0.25 lb.) | % Control (with 1" of rain) ([1]; 1 lb.) | % Control (without rain) ([2]; 0.25 lb.) | % Control (without rain) ([2]; 1 lb.) | pest or weed control at 280.212 g/ha [1] | pest or weed control at 1120.85 g/ha [1] | pest or weed control at 280.212 g/ha [2] | pest or weed control at 1120.85 g/ha [2]
4-(1,3-dihydroxypropyl)-1,2,4-triazole [Example 22] | 0% | 0% | 90% | 90% | – | – | – | –
c1nncn1C1CC1 [Example 2, 4-cyclopropyl-1,2,4-triazole] | – | – | – | – | 40% | 0% | 90% | 90%
CCC(C)n1cnnc1 (stereo not shown) [Example 5, 4-sec-butyl-1,2,4-triazole] | – | – | – | – | 78% | 69% | 97% | 99%
CC(C)(C)n1cnnc1 [Example 6, 4-t-butyl-1,2,4-triazole] | – | – | – | – | 95% | 95% | 100% | 100%
CCCCCn1cnnc1 [Example 7, 4-n-pentyl-1,2,4-triazole] | – | – | – | – | 100% | 100% | 100% | 100%
CCCCCCCCCCn1cnnc1 [Example 12, 4-n-decyl-1,2,4-triazole] | – | – | – | – | 48% | 78% | 57% | 100%
CC=CCn1cnnc1 [Example 14, 4-(2-butenyl)-1,2,4-triazole] | – | – | – | – | 99% | 100% | 100% | 100%
C#CCn1cnnc1 [Example 15, 4-propargyl-1,2,4-triazole] | – | – | – | – | 99% | 100% | 100% | 100%
C#CC(C)(C)n1cnnc1 [Example 16, 4-(1,1-dimethylpropargyl)-1,2,4-triazole] | – | – | – | – | 0% | 0% | 0% | 0%
OCCn1cnnc1 [Example 17, 4-(2-hydroxyethyl)-1,2,4-triazole] | – | – | – | – | 0% | 0% | 60% | 5%
CCC(O)Cn1cnnc1 (stereo not shown) [Example 19, 4-(2-hydroxybutyl)-1,2,4-triazole] | – | – | – | – | 0% | 0% | 65% | 65%
CC(O)CCn1cnnc1 (stereo not shown) [Example 20, 4-(3-hydroxybutyl)-1,2,4-triazole] | – | – | – | – | 0% | 0% | 0% | 0%
OCCCCn1cnnc1 [Example 21, 4-(4-hydroxybutyl)-1,2,4-triazole] | – | – | – | – | 0% | 0% | 10% | 10%
Clc1ccc(OCCn2cnnc2)cc1 [Example 26] | – | – | – | – | 0% | 0% | 0% | 10%
Clc1ccc(OCCn2cnnc2)c(Cl)c1 [Example 29, 4-(2-(2,4-dichlorophenoxy)ethyl)-1,2,4-triazole] | – | – | – | – | 0% | 0% | 0% | 20%
Clc1ccc(SCCn2cnnc2)cc1 [Example 30, 4-(2-(4-chlorothiophenoxy)ethyl)-1,2,4-triazole] | – | – | – | – | 35% | 75% | 90% | 95%
Clc1ccc(SCCn2cnnc2)cc1Cl [Example 31, 4-(2-(3,4-dichlorothiophenoxy)ethyl)-1,2,4-triazole] | – | – | – | – | 45% | 60% | 95% | 98%
COc1ccc(SCCn2cnnc2)cc1 [Example 32, 4-(2-(4-methoxythiophenoxy)ethyl)-1,2,4-trianzole] | – | – | – | – | 30% | 85% | 95% | 99%
c1ccc(CCn2cnnc2)cc1 [Example 33, 4-phenethyl-1,2,4-triazole] | – | – | – | – | – | – | 100% | 100%
COc1ccc(CCn2cnnc2)cc1 [Example 34, 4-(4-methoxyphenethyl)-1,2,4-triazole] | – | – | – | – | 15% | 15% | 15% | 25%
CCN(CC)CCn1cnnc1 [Example 35] | – | – | – | – | 0% | 10% | 30% | 40%

Molecule | % Control (with 1" of rain) ([1]; 0.25 lb.) | % Control (with 1" of rain) ([1]; 1 lb.) | % Control (without rain) ([2]; 0.25 lb.) | % Control (without rain) ([2]; 1 lb.) | pest or weed control at 280.212 g/ha [1] | pest or weed control at 1120.85 g/ha [1] | pest or weed control at 280.212 g/ha [2] | pest or weed control at 1120.85 g/ha [2]
c1nc(CCn2cnnc2)c[nH]1 [Example 36, 4-[2-(4-imidazolyl)]-1,2,4-triazole] | – | – | – | – | 0% | 10% | 0% | 10%
c1nncn1CCCCn1cnnc1 [Example 37, 4-[4-(1,2,4-triazyl)butyl]-1,2,4-triazole] | – | – | – | – | 5% | 0% | 0% | 0%
CCOC(=O)CC(C)n1cnnc1 (stereo not shown) [Example 40, 4-(1-methyl-2-ethoxycarbonylethyl)-1,2,4-triazole] | – | – | – | – | 10% | 10% | 40% | 40%
O=C(O)CCn1cnnc1 [Example 41, 4-(2-carboxyethyl)-1,2,4-triazole] | – | – | – | – | 0% | 0% | 85% | 90%
O=C(O)CCCn1cnnc1 [Example 44, 4-(3-carboxypropyl)-1,2,4-triazole] | – | – | – | – | 35% | 5% | 20% | 75%
CC(C)OCCCn1cnnc1 [Example 48, 4-(3-isopropoxypropyl)-1,2,4-triazole] | – | – | – | – | 0% | 0% | 0% | 0%
COc1ccc(Cn2cnnc2)cc1 [Example 50, 4-(4-methoxybenzyl)-1,2,4-triazole] | – | – | – | – | – | 100% | 100% | –
Clc1ccc(Cn2cnnc2)c(Cl)c1 [Example 52, 4-(2,4-dichlorobenzyl)-1,2,4-triazole] | – | – | – | – | 5% | 10% | 0% | 20%
Clc1ccc(Cn2cnnc2)cc1Cl [Example 53, 4-(3,4-dichloroenzyl)-1,2,4-triazole] | – | – | – | – | 10% | 30% | 60% | 70%
c1ccc(-n2cnnc2)cc1 [Example 54, 4-phenyl-1,2,4-triazole] | – | – | – | – | 25% | 85% | 75% | 90%
Clc1cccc(-n2cnnc2)c1 [Example 55, 4-(3-chlorophenyl)-1,2,4-triazole hydrochloride] | – | – | – | – | – | – | 100% | 100%
Clc1ccc(-n2cnnc2)c(Cl)c1 [Example 56, 4-(2,4-dichlorophenyl)-1,2,4-triazole] | – | – | – | – | 0% | 5% | 90% | 65%
O=[N+]([O-])c1cccc(-n2cnnc2)c1 [Example 58, 4-(3-nitrophenyl)-1,2,4-triazole] | – | – | – | – | 0% | 0% | 80% | 80%
O=[N+]([O-])c1ccc(-n2cnnc2)cc1 [Example 59, 4-(4-nitrophenyl)-1,2,4-triazole] | – | – | – | – | 58% | 79% | 97% | 98%
COc1ccc(-n2cnnc2)cc1 [Example 60, 4-(4-methoxyphenyl)-1,2,4-triazole] | – | – | – | – | 95% | 97% | 100% | 100%
c1cc(-n2cnnc2)ccn1 [Example 61, 4-(4-pyridyl)-1,2,4-triazole] | – | – | – | – | 0% | 0% | 10% | 10%
c1ccc(-n2cnnc2)nc1 [Example 62, 4-(2-pyridyl)-1,2,4-triazole] | – | – | – | – | – | 99% | 100% | 100%
c1nncn1N1CCOCC1 [Example 64, 4-morpholino-1,2,4-triazole] | – | – | – | – | – | – | 88% | 94%
c1nncn1-n1cnnc1 [Example 65] | – | – | – | – | – | – | 64% | 78%
O=C(Sc1nncn1-c1ccccc1)c1cccc([N+](=O)[O-])c1 [Example 130, 3-(3-nitrobenzoylmercapto)-4-phenyl-1,2,4-triazole] | – | – | – | – | – | – | 97% | 100%
